Literature values as cited in US9433643B2, “Microbicidal composition comprising hydrogen peroxide and aminocarboxylic acids” (Truox, Inc., priority 2013, dated 2016).

Columns and labels:
[1] = at 25° C., reported
[2] = reported

SMILES	isoelectric point (pI) [1]	further results
N=C(N)NCCC[C@H](N)C(=O)O [arginine]	10.76	–
CC(=O)OO [Peroxyacetic acid]	–	pKa [2]: 4.76
N[C@@H](CC(=O)O)C(=O)O [aspartic acid]	2.98	–
C[C@H](N)C(=O)O [alanine]	6.11	–
N[C@@H](CCC(=O)O)C(=O)O [glutamic acid]	3.08	–
O=C(O)CN(CCN(CC(=O)O)CC(=O)O)CC(=O)O [EDTA, ethylenediaminetetraacetic acid]	–	pK1 ([2]; carboxylic acid groups): 2.00; pK2 ([2]; carboxylic acid groups): 2.65; pK3 ([2]; carboxylic acid groups): 6.18; pK4 ([2]; carboxylic acid groups): 10.30
NCC(=O)O [glycine, aminoethanoic acid]	6.06	–
